Assay results: patent publication US20240067662A1, “KRAS INHIBITORS” (Bristol-Myers Squibb Company, priority 2022, published 2024)

What follows are molecules tested against GMPPNP-loaded KRAS G12C (Homo sapiens, UniProt P01116, G12C) (assay: KRAS G12C RAF Disruption Assay (HTRF)). Conditions: recombinant GMPPNP-loaded KRAS G12C (5 nM), 20 min with compound; GST-RAF1 RBD (9 nM); HTRF signal; read-out: KRASG12C RAF Disruption Assay (IC50).
Assay type: biochemical
Summary of the method: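 GMPPNP-loaded KRAS G12C (5 nM) was preincubated with compound for 20 min at room temperature in Tris pH 7.5 buffer with NaCl, MgCl2, DTT and BSA. GST-RAF1 RBD (9 nM) was added for 20 min, then SA-Tb (0.25 nM) for 3 h. IC50 was fitted from the HTRF 520/495 ratio.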

Chain of GMPPNP-loaded KRAS G12C (P01116 1-188 isoform P01116-2 G12C): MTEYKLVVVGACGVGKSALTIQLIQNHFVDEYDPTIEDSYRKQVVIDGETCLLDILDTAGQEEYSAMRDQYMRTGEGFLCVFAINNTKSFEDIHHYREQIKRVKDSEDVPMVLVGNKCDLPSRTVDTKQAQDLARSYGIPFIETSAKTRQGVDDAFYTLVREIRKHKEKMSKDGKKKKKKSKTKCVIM

In order of falling IC50:
1. C#Cc1cccc2cccc(-c3ncc4c(N5CC6(CCN(C(=O)/C(F)=C/c7ncccn7)CC6)C5)nc(OC[C@@]56CCCN5C[C@H](F)C6)nc4c3F)c12 [Compound 92, (Z)-1-(2-(7-(8-ethynylnaphthalen-1-yl)-8-fluoro-2-(((2R, 7aS)-2-fluorotetrahydro-1H-pyrrolizin-7a(5H)-yl)methoxy)pyrido[4,3-d]pyrimidin-4-yl)-2,7-diazaspiro[3.5]nonan-7-yl)-2-fluoro-3-(pyrimidin-2-yl)prop-2-en-1-one]  24000 nM
2. C#Cc1cccc2cccc(-c3ncc4c(N(C)C5CCN(C(=O)/C(F)=C/c6nccs6)C5C)nc(OC[C@@]56CCCN5C[C@H](F)C6)nc4c3F)c12 (single isomer, unassigned) [Example 73 trans isomer 2]  5700 nM
3. CN1CCC[C@H]1COc1nc(N2CCN(C(=O)/C(F)=C/c3nccs3)CC2)c2cnc(-c3cccc4cccc(Cl)c34)c(F)c2n1 [Compound 22, (S,Z)-1-(4-(7-(8-chloronaphthalen-1-yl)-8-fluoro-2-((1-methylpyrrolidin-2-yl)methoxy)pyrido[4,3-d]pyrimidin-4-yl)piperazin-1-yl)-2-fluoro-3-(thiazol-2-yl)prop-2-en-1-one]  1900 nM
4. C#Cc1cccc2cccc(-c3ncc4c(N(C)C5CCN(C(=O)/C(F)=C/c6nccs6)C5C)nc(OC[C@@]56CCCN5C[C@H](F)C6)nc4c3F)c12 (single isomer, unassigned) [Example 73 trans isomer 1]  1600 nM
5. N#CC[C@H]1CN(c2nc(OC[C@@]34CCCN3C[C@H](F)C4)nc3c(F)c(-c4cc(F)ccc4C(F)F)ncc23)CCN1C(=O)/C(F)=C/c1nccs1 [Example 43, 2-((S)-4-(7-(2-(difluoromethyl)-5-fluorophenyl)-8-fluoro-2-(((2R, 7aS)-2-fluorotetrahydro-1H-pyrrolizin-7a(5H)-yl)methoxy)pyrido[4,3-d]pyrimidin-4-yl)-1-((Z)-2-fluoro-3-(thiazol-2-yl)acryloyl)piperazin-2-yl)acetonitrile]  1100 nM
6. C#Cc1cccc2c(F)ccc(-c3ncc4c(N5CCN(C(=O)/C(F)=C/c6ncccn6)CC5)nc(OC[C@@]56CCCN5C[C@H](F)C6)nc4c3F)c12 [Compound 88, (Z)-1-(4-(7-(8-ethynyl-4-fluoronaphthalen-1-yl)-8-fluoro-2-(((2R, 7aS)-2-fluorotetrahydro-1H-pyrrolizin-7a(5H)-yl)methoxy)pyrido[4,3-d]pyrimidin-4-yl)piperazin-1-yl)-2-fluoro-3-(pyrimidin-2-yl)prop-2-en-1-one]  1000 nM
7. Cc1ccc2[nH]ncc2c1-c1ncc2c(N3CCN(C(=O)/C(F)=C/c4ccccn4)CC3)nc(OC[C@@]34CCCN3C[C@H](F)C4)nc2c1F [Example 30, (Z)-2-fluoro-1-(4-(8-fluoro-2-(((2R, 7aS)-2-fluorotetrahydro-1H-pyrrolizin-7a(5H)-yl)methoxy)-7-(5-methyl-1H-indazol-4-yl)pyrido[4,3-d]pyrimidin-4-yl)piperazin-1-yl)-3-(pyridin-2-yl)prop-2-en-1-one]  470 nM
8. C#Cc1c(F)ccc2cc(O)cc(-c3ncc4c(N5CC6CCC(C5)N6C(=O)/C(F)=C/c5nc(Br)cs5)nc(OC[C@@]56CCCN5C[C@H](F)C6)nc4c3F)c12 [Compound 11, (Z)-3-(4-bromothiazol-2-yl)-1-((JR, 5S)-3-(7-(8-ethynyl-7-fluoro-3-hydroxynaphthalen-1-yl)-8-fluoro-2-(((2R, 7aS)-2-fluorotetrahydro-1H-pyrrolizin-7a(5H)-yl)methoxy)pyrido[4,3-d]pyrimidin-4-yl)-3,8-diazabicyclo[3.2.1]octan-8-yl)-2-fluoroprop-2-en-1-one]  450 nM
9. N#CC[C@H]1CN(c2nc(OC[C@@]34CCCN3C[C@H](F)C4)nc3c(F)c(-c4cccc(O)c4)ncc23)CCN1C(=O)/C(F)=C/c1nccs1 [Example 72, 2-((S)-4-(8-fluoro-2-(((2R, 7aS)-2-fluorotetrahydro-1H-pyrrolizin-7a(5H)-yl)methoxy)-7-(3-hydroxyphenyl)pyrido[4,3-d]pyrimidin-4-yl)-1-((Z)-2-fluoro-3-(thiazol-2-yl)acryloyl)piperazin-2-yl)acetonitrile]  440 nM
10. N#CC[C@H]1CN(c2nc(OC[C@@]34CCCN3C[C@H](F)C4)nc3c(F)c(-c4csc5ccccc45)ncc23)CCN1C(=O)/C(F)=C/c1ccccn1 [Example 35, 2-((S)-4-(7-(benzo[b]thiophen-3-yl)-8-fluoro-2-(((2R, 7aS)-2-fluorotetrahydro-1H-pyrrolizin-7a(5H)-yl)methoxy)pyrido[4,3-d]pyrimidin-4-yl)-1-((Z)-2-fluoro-3-(pyridin-2-yl)acryloyl)piperazin-2-yl)acetonitrile]  430 nM
11. N#CC[C@H]1CN(c2nc(OC[C@@]34CCCN3C[C@H](F)C4)nc3c(F)c(-c4csc5ccccc45)ncc23)CCN1C(=O)/C(F)=C/c1nccs1 [Example 34, 2-((S)-4-(7-(benzo[b]thiophen-3-yl)-8-fluoro-2-(((2R, 7aS)-2-fluorotetrahydro-1H-pyrrolizin-7a(5H)-yl)methoxy)pyrido[4,3-d]pyrimidin-4-yl)-1-((Z)-2-fluoro-3-(thiazol-2-yl)acryloyl)piperazin-2-yl)acetonitrile]  400 nM
12. C#Cc1c(F)ccc2cc(O)cc(-c3ncc4c(N5C[C@H]6CC[C@@H](C5)N6C(=O)/C(F)=C/c5ncco5)nc(OC[C@@]56CCCN5C[C@H](F)C6)nc4c3F)c12 [Compound 4, (Z)-1-((1R, 5S)-3-(7-(8-ethynyl-7-fluoro-3-hydroxynaphthalen-1-yl)-8-fluoro-2-(((2R, 7aS)-2-fluorotetrahydro-1H-pyrrolizin-7a(5H)-yl)methoxy)pyrido[4,3-d]pyrimidin-4-yl)-3,8-diazabicyclo[3.2.1]octan-8-yl)-2-fluoro-3-(oxazol-2-yl)prop-2-en-1-one]  260 nM
13. C#Cc1cccc2cccc(-c3ncc4c(N5CCN(C(=O)/C(F)=C/c6ccccn6)C[C@@H]5C)nc(OC[C@@]56CCCN5C[C@H](F)C6)nc4c3F)c12 [Example 63, (Z)-1-((S)-4-(7-(8-ethynylnaphthalen-1-yl)-8-fluoro-2-(((2R, 7aS)-2-fluorotetrahydro-1H-pyrrolizin-7a(5H)-yl)methoxy)pyrido[4,3-d]pyrimidin-4-yl)-3-methylpiperazin-1-yl)-2-fluoro-3-(pyridin-2-yl)prop-2-en-1-one]  180 nM
14. C#Cc1c(F)ccc2cc(O)cc(-c3ncc4c(N5C[C@H]6CC[C@@H](C5)N6C(=O)/C(F)=C/c5ccc(C)cn5)nc(OC[C@@]56CCCN5C[C@H](F)C6)nc4c3F)c12 [Compound 6, (Z)-1-((1R, 5S)-3-(7-(8-ethynyl-7-fluoro-3-hydroxynaphthalen-1-yl)-8-fluoro-2-(((2R, 7aS)-2-fluorotetrahydro-1H-pyrrolizin-7a(5H)-yl)methoxy)pyrido[4,3-d]pyrimidin-4-yl)-3,8-diazabicyclo[3.2.1]octan-8-yl)-2-fluoro-3-(5-methylpyridin-2-yl)prop-2-en-1-one]  45 nM
15. C#Cc1c(F)ccc2cccc(-c3ncc4c(N5CCN(C(=O)/C(F)=C/c6nccs6)CC5)nc(OC[C@@]56CCCN5C[C@H](F)C6)nc4c3F)c12 [Example 53, (Z)-1-(4-(7-(8-ethynyl-7-fluoronaphthalen-1-yl)-8-fluoro-2-(((2R, 7aS)-2-fluorotetrahydro-1H-pyrrolizin-7a(5H)-yl)methoxy)pyrido[4,3-d]pyrimidin-4-yl)piperazin-1-yl)-2-fluoro-3-(thiazol-2-yl)prop-2-en-1-one]  44 nM
16. C#Cc1c(F)ccc2cc(O)cc(-c3ncc4c(N5C[C@H]6CC[C@@H](C5)N6C(=O)/C(F)=C/c5nccs5)nc(OC[C@@]56CCCN5C[C@H](F)C6)nc4c3F)c12 [Compound 1, (Z)-1-((1R, 5S)-3-(7-(8-ethynyl-7-fluoro-3-hydroxynaphthalen-1-yl)-8-fluoro-2-(((2R, 7aS)-2-fluorotetrahydro-1H-pyrrolizin-7a(5H)-yl)methoxy)pyrido[4,3-d]pyrimidin-4-yl)-3,8-diazabicyclo[3.2.1]octan-8-yl)-2-fluoro-3-(thiazol-2-yl)prop-2-en-1-one]  27 nM
17. C#Cc1c(F)ccc2cc(O)cc(-c3ncc4c(N5C[C@H]6CC[C@@H](C5)N6C(=O)/C(F)=C/c5cccnn5)nc(OC[C@@]56CCCN5C[C@H](F)C6)nc4c3F)c12 [Compound 12, (Z)-1-((1R, 5S)-3-(7-(8-ethynyl-7-fluoro-3-hydroxynaphthalen-1-yl)-8-fluoro-2-(((2R, 7aS)-2-fluorotetrahydro-1H-pyrrolizin-7a(5H)-yl)methoxy)pyrido[4,3-d]pyrimidin-4-yl)-3,8-diazabicyclo[3.2.1]octan-8-yl)-2-fluoro-3-(pyridazin-3-yl)prop-2-en-1-one]  11 nM
18. C#Cc1c(F)ccc2cc(O)cc(-c3ncc4c(N5CCN(C(=O)/C(F)=C/c6cnccn6)CC5)nc(OC[C@@]56CCCN5C[C@H](F)C6)nc4c3F)c12 [Example 56, (Z)-1-(4-(7-(8-ethynyl-7-fluoro-3-hydroxynaphthalen-1-yl)-8-fluoro-2-(((2R, 7aS)-2-fluorotetrahydro-1H-pyrrolizin-7a(5H)-yl)methoxy)pyrido[4,3-d]pyrimidin-4-yl)piperazin-1-yl)-2-fluoro-3-(pyrazin-2-yl)prop-2-en-1-one]  6 nM
19. CN(c1nc(OC[C@@]23CCCN2C[C@H](F)C3)nc2c(F)c(-c3c(F)cc(F)c4sc(N)nc34)ncc12)[C@@H]1CCN(C(=O)/C(F)=C/c2ccccn2)C1 [Compound 119, (Z)-1-((3R)-3-((7-(2-amino-5,7-difluorobenzo[d]thiazol-4-yl)-8-fluoro-2-(((7aS)-2-fluorotetrahydro-1H-pyrrolizin-7a(5H)-yl)methoxy)pyrido[4,3-d]pyrimidin-4-yl)(methyl)amino)pyrrolidin-1-yl)-2-fluoro-3-(pyridin-2-yl)prop-2-en-1-one]  5 nM
